Target: T1, bPARG (construct C, 75-kDa carboxyl-terminal region) expressed in E. coli (Bos taurus, UniProt O02776)
T1 construct: construct C contained only the 75-kDa carboxyl-terminal region of the PARG, which predicted a fusion protein of approximately 79 kDa; made in house; host or cells: E. coli (pTrcHis expression plasmid; supernatant of crude cell extract)
Test: PARG activity, thin layer chromatography assay measuring release of [32P]ADP-ribose from [32P]ADP-ribose polymers
Format: biochemical, bovine
Conditions: 167 μm inhibitor; extract of E. coli strain containing construct C, 5 h after induction by IPTG (FIG. 6, bar 6 vs bar 5)
Procedure: For expression experiments, bacterial cultures were grown at 37° C. in 1% Bacto-tryptone, 0.5% yeast extract, and 0.5% NaCl to a density of approximately 0.6 A600/ml and were induced with 1 mM isopropyl-β-D-thiogalactoside (IPTG). Cells were-collected by centrifugation, and crude extracts were prepared by sonication (10 A600/ml) in 10 mM sodium phosphate buffer, pH 7.2, 150 mM NaCl, 0.5 mg/ml lysozyme, 0.1 mg/ml phenylmethylsulfonyl fluoride, 1 mM EDTA, 0.7 μg/ml pepstatin A, 0.5 μg/ml leupeptin, and 1 μg/ml aprotinin. Cell extracts were subjected to centrifugation, and the supernatant fraction was used for assay. PARG assay conditions were as described previously (52). Following incubations, portions of reaction mixture were analyzed by thin layer chromatography or subjected to anion exchange HPLC.
Using a thin layer chromatography assay that measures release of [^32P]ADP-ribose from [^32P]ADP-ribose polymers (53), PARG activity was detected in extracts from cells transformed by each of the constructs. […] Reaction mixtures contained approximately 15,000 cpm of [^32P]ADP-ribose polymers, and the cpm shown represent ADP-ribose released from the ADP-ribose polymers. […] No activity was detected in cells transformed with the empty vector, but activity was detectable without induction by IPTG, indicating a leaky lac promoter.

T1 sequence (O02776 322-977 limits assumed): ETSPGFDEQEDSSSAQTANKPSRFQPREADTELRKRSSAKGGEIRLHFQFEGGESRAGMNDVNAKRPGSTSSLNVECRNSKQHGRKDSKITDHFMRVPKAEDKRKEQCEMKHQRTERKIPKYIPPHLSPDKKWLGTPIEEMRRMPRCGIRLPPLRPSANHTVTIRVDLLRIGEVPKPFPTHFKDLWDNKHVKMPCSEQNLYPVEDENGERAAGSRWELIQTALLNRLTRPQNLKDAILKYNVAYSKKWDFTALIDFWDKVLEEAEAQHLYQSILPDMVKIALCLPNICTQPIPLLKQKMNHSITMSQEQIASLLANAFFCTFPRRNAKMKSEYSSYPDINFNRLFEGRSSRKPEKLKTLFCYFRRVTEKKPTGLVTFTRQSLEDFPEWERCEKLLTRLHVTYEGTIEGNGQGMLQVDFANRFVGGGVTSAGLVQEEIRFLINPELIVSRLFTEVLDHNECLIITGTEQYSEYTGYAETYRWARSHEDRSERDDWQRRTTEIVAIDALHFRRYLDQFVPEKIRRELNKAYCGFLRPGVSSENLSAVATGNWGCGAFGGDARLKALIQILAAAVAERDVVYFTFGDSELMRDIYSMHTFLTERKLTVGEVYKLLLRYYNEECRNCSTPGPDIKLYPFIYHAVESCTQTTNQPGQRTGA

enzymatic activity (ADP-ribose released from ADP-ribose polymers): strongly inhibited
Compound: Nc1ncnc2c1ncn2[C@@H]1O[C@H](COP(=O)(O)OP(=O)(O)OC[C@H]2NC[C@H](O)[C@@H]2O)[C@@H](O)[C@H]1O [ADP-hydroxymethylpyrrolidine diol]
